Data taken from patent US10196363B2, “Dihydropyrimidin-2-one compounds and medical use thereof” (JAPAN TOBACCO INC., priority 2014, dated 2019).
Where a name gives a salt, the structure may show the parent alone.

How the values were obtained:
[1] = molecular target: T1, human RORγ (Homo sapiens, UniProt P51449); experiment: In vitro assay of inhibitory effect against RORγ transcriptional activity (GAL4-hRORγ LBD luciferase reporter gene assay in CHO cells); type: cell-based; details: GAL4-hRORγ LBD luciferase reporter, CHO cells; read-out: LUC EC50 hRORγ
T1 construct: human RORγ, from Ser253 to Lys518; expressed in transfected cells; host or cells: CHO cells (Chinese hamster ovary), transient co-transfection with pG5-Luc
T1 sequence (P51449 253-518): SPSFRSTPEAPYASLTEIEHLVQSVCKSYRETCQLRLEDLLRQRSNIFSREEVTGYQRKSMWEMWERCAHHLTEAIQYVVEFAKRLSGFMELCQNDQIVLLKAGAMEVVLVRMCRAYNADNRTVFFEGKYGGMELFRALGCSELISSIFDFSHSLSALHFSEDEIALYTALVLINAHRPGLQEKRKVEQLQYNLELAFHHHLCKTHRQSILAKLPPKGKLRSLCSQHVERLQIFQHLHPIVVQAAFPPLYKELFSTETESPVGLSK
Method in brief: (§1)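 Luciferase output, normalised to 0.2% DMSO vehicle (100%), served as the measure of RORγ transcriptional activity. The reporter was driven by GAL4-fused ligand-binding domains of human (residues 253–518) or mouse (251–516) RORγ in transiently transfected CHO cells. Cells received eight-point compound dilutions for 2 days, EC50 values were fitted, and cytotoxic points were dropped.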

[2] = molecular target: T2, mouse RORγ (Mus musculus, UniProt P51450); experiment: In vitro assay of inhibitory effect against RORγ transcriptional activity (GAL4-mRORγ LBD luciferase reporter gene assay in CHO cells); type: cell-based; details: GAL4-mRORγ LBD luciferase reporter, CHO cells; read-out: LUC EC50 mRORγ
T2 construct: mouse RORγ, from Ile251 to Lys516; expressed in transfected cells; host or cells: CHO cells (Chinese hamster ovary), transient co-transfection with pG5-Luc
T2 sequence (P51450 251-516): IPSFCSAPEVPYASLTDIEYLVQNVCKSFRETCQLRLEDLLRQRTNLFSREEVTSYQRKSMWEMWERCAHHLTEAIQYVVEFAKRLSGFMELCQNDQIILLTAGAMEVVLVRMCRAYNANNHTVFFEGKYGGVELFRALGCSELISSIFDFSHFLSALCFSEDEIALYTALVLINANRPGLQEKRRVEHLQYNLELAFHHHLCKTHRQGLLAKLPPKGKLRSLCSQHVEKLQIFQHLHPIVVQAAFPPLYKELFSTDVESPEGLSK
Method in brief: as §1

EC50 [1] [nM]	EC50 [2] [nM]	Structure (SMILES)
43	47	CC(C)C1=CN(c2ccc(C(=O)O)cc2)C(=O)N[C@@]1(C)c1ccc(CCC(C)(C)C)c(C(F)(F)F)c1 [Example 271, 4-{(S)-4-[4-(3,3-Dimethyl-butyl)-3-trifluoromethyl-phenyl]-5-isopropyl-4-methyl-2-oxo-3,4-dihydro-2H-pyrimidin-1-yl}-benzoic Acid]
17	36	CC(C)C1=CN(C23CCC(C(=O)O)(C2)C3)C(=O)N[C@@]1(C)c1ccc(CCC(C)(C)C)c(Cl)c1 [Example 272]
14	21	CC(C)C1=CN(c2ccc(C(=O)O)cn2)C(=O)N[C@@]1(C)c1ccc(CCC(C)(C)C)c(Cl)c1 [Example 281, 6-{(S)-4-[3-Chloro-4-(3,3-dimethyl-butyl)-phenyl]-5-isopropyl-4-methyl-2-oxo-3,4-dihydro-2H-pyrimidin-1-yl}-nicotinic Acid hydrochloride]
18	28	CC(C)C1=CN(c2ccc(C(=O)O)c(C(F)(F)F)c2)C(=O)N[C@@]1(C)c1ccc(CCC(C)(C)C)c(Cl)c1 [Example 283]
68	34	CC(C)C1=CN(CCC(=O)O)C(=O)N[C@@]1(C)c1ccc(CCC(C)(C)F)c(Cl)c1 [Example 294]
134	366	CC(C)C1=CN(c2cc(C(=O)O)on2)C(=O)N[C@@]1(C)c1ccc(CCC(C)(C)C)c(Cl)c1 [Example 295]
44	61	CC(C)C1=CN(c2cc(C(=O)O)nn2C)C(=O)N[C@@]1(C)c1ccc(CCC(C)(C)C)c(Cl)c1 [Example 297]

More lines, now with the values behind:

Structure (SMILES)	EC50 [1] [nM]	EC50 [2] [nM]
CC(C)C1=CN(CCC(=O)O)C(=O)N[C@@]1(C)c1ccc(CCC(C)(C)C)c(C(F)(F)F)c1 [Example 270]	52	26
COCCN1C=C(c2cccc(C(=O)O)c2)[C@](C)(c2ccc(CCC(C)(C)C)c(Cl)c2)NC1=O [Example 273]	25	75
COCCC1=CN(C23CCC(C(=O)O)(C2)C3)C(=O)N[C@@]1(C)c1ccc(CCC(C)(C)C)c(Cl)c1 [Example 274]	8	8
COCCN1C=C(c2cncc(C(=O)O)c2)[C@](C)(c2ccc(CCC(C)(C)C)c(Cl)c2)NC1=O [Example 275]	542	1210
CC(C)C1=CN(CCC(=O)O)C(=O)N[C@@]1(C)c1ccc(CC2CC(F)(F)C2)c(Cl)c1 [Example 282]	378	187
CC(C)(C)CCc1ccc([C@]2(C)NC(=O)N(CCC(=O)O)C=C2C2CC(C)(C)OC(C)(C)C2)cc1Cl [Example 284]	2780	1500
CC(C)C1=CN(CCC(=O)O)C(=O)N[C@@]1(C)c1ccc(C=C2CCC(C)(C)CC2)c(Cl)c1 [Example 285]	1350	30
CC(C)C1=CN(CCC(=O)O)C(=O)N[C@@]1(C)c1ccc(CC2CCC(C)(C)CC2)c(Cl)c1 [Example 286]	270	38
CC(C)C1=CN(CCC(=O)O)C(=O)N[C@@]1(C)c1ccc(C=C2CCC2)c(Cl)c1 [Example 288]	1490	917
CC(C)C1=CN(CCC(=O)O)C(=O)N[C@@]1(C)c1ccc(C=C2CCOCC2)c(Cl)c1 [Example 289]	1120	773
CC(C)C1=CN(CCC(=O)O)C(=O)N[C@@]1(C)c1ccc(CC2CCOCC2)c(Cl)c1 [Example 290]	463	259
CC(C)C1=CN(CCC(=O)O)C(=O)N[C@@]1(C)c1ccc(CC2CCC2)c(Cl)c1 [Example 291]	1080	138
C=C(C)C1=CN(CCC(=O)O)C(=O)N[C@@]1(C)c1ccc(CCC(C)(C)C)c(Cl)c1 [Example 292]	89	73
CC(C)C1=CN(CCC(=O)O)C(=O)N[C@@]1(C)c1ccc(CCC(C)(C)O)c(Cl)c1 [Example 293]	1100	1020
COCCN1C=C(c2cnn(C(C)(C)C(=O)O)c2)[C@](C)(c2ccc(CCC(C)(C)C)c(Cl)c2)NC1=O [Example 296]	3720	4530
